Patent US9167820B2, “Anti-biofilm compounds” (priority 2011, dated 2015)

Assays:
P. gingivalis = assay: Modified Baker mouse model of periodontitis (S. gordonii then P. gingivalis infection), alveolar bone loss; type: in vivo, Balb/cByJ mice; settings: mice infected with S. gordonii and 10^7 cfu P. gingivalis; peptide added to the inoculum
Source text: FIG. 6. Alveolar bone loss induced in Balb/cByJ mice in the presence and absence of BAR peptide. Sham infected animals were inoculated with CMC slurry without bacteria.
To determine how effectively the inhibitors limit or prevent P. gingivalis colonization in vivo, a modified Baker mouse model of periodontitis is used. The model is modified by first infecting with and establishing S. gordonii in the oral cavity of Balb/cByJ mice then subsequently challenging with P. gingivalis. In the presence of S. gordonii, a persistent infection of P. gingivalis (detected by 16S rDNA PCR 47 days post infection) can be established using an inoculum of 10^7 cfu. […] Thus, preventing P. gingivalis colonization of mice reduces alveolar bone loss.

[1] = test system: P. gingivalis biofilms on streptococci; assay: Inhibition/disruption of P. gingivalis biofilms on streptococci by AgI/II-derived peptide; type: cell-based
Description: The plate assays above allow a quick examination of the kinetics of Mfa binding and inhibition of bacterial adherence. To determine if the Mfa-catalyzed compounds selected above inhibit the formation of P. gingivalis biofilms, or alternatively are capable of disrupting a pre-existing biofilm, dual species P. gingivalis-S. gordonii biofilms are grown and analyzed as previously described by Daep et al. (Daep, C. A., James, D. M., Lamont, R. J. and Demuth, D. R. 2006. Structural Characterization of Peptide-Mediated Inhibition of P. gingivalis Biofilm Formation. Infect. Immun. 74: 5756-5762; Daep, C. A., Lamont R. J. and Demuth, D. R. 2008. Interaction of P. gingivalis with oral streptococci requires a motif that resembles the eukaryotic nuclear receptor box protein-protein interaction domain. Infect. Immun. 76:3272-3280) using an open flow biofilm culture system. To determine if the inhibitors are capable of disrupting existing P. gingivalis-streptococcal biofilms, pre-formed biofilms are incubated with medium containing the inhibitor and analyzed as above. The inhibitors identified from the assays above are analyzed for in vivo efficacy in preventing P. gingivalis colonization in a mouse model of periodontitis.

[2] = test system: P. gingivalis adherence to streptococci (S. gordonii DL-1); assay: Inhibition of P. gingivalis adherence to streptococci, two species biofilm culture model (confocal microscopy); type: cell-based; settings: for P. gingivalis adherence to streptococci at 5 μM: 5 μM compound; for P. gingivalis adherence to streptococci at 20 μM: 20 μM compound; for inhibition of P. gingivalis adherence, dose dependence: tested at final concentrations of 5, 20 or 60 μM, 24 hrs anaerobic incubation
Description: Compounds 25, 27a, 34, 35 and 42 were tested to determine if they inhibited P. gingivalis adherence to streptococci using a two species biofilm culture model. Compounds of the invention (e.g. compounds of formula I) can also be tested using this method. A mid-exponential phase culture of S. gordonii DL-1 was harvested by centrifugation and the cells were suspended in phosphate buffered saline (PBS) at a density of 10^9 cfu/ml. A 1 ml aliquot was labeled with hexidium iodide (30 μM) for 15 minutes with gentle shaking. After washing three times with PBS, streptococci were suspended in growth medium and 100 μl was added to a 12 well microtiter plate (Grace Bio-Labs) and incubated anaerobically for 24 hrs.
P. gingivalis cells from an exponential culture were washed with PBS and labeled by reacting with 4 μg/ml carboxyfluorescein-succinyl ester for 30 minutes at 4° C. After washing three times with PBS, the cells were suspended in PBS at a density of 2×10^7 cfu/ml. The test compounds were dissolved in absolute ethanol to a final concentration of 30 mM and each was diluted into 100 μl P. gingivalis to final concentrations of 5, 20 or 60 μM and incubated for 30 minutes. After removal of unbound streptococci from the micotiter plate, P. gingivalis samples were then added to each well and incubated anaerobically for 24 hrs. A control well contained P. gingivalis that was pre-incubated with PBS alone.
Adherence of P. gingivalis to streptococci was analyzed using confocal laser scanning microscopy on an Olympus FluoView 500 inverted confocal microscope. Image stacks were acquired using Olympus FluoView software and rendered into 3 dimensional projections using Volocity Image Analysis software, where S. gordonii is depicted in red and P. gingivalis is shown in green/yellow. […] Compound 46 reduced P. gingivalis adherence to streptococci by 25% at 25 μM and by approximately 60% at 50 μM.

Molecule: LEAAPKKVQDLLKKANITVKGAFQLFS [BAR peptide]
- alveolar bone loss (P. gingivalis): reduced to near sham infected levels
- inhibition of P. gingivalis adherence and formation of biofilms on streptococcal substrates [1]: potently inhibits
- disruption of existing P. gingivalis biofilms ([1]; pre-existing biofilms): capable of disrupting existing P. gingivalis biofilms
- IC50 ([1]; read-out: I50, inhibition of development of P. gingivalis biofilms on streptococci): 1.3 µM

Molecule: Cc1nc(-c2ccccc2)c(-c2ccccc2)o1 [Compound 25, 2-Methyl-4,5-diphenyloxazole]
- P. gingivalis adherence to streptococci at 5 μM [2]: completely inhibited

Molecule: [N-]=[N+]=Nc1cccc(-c2nc(-c3ccccc3)c(-c3ccccc3)o2)c1 [Compound 35, 2-(3-azidophenyl)-4,5-diphenyloxazole]
- P. gingivalis adherence to streptococci at 20 μM [2]: significantly reduced adherence
- P. gingivalis adherence to streptococci at 60 μM ([2]; 60 μM compound): completely blocked

Molecule: c1ccc(-c2nc(-c3ccccc3)c(-c3ccccc3)o2)cc1 [Compound 27a]
- P. gingivalis adherence to streptococci at a concentration of 60 ([2]; concentration of 60 (unit not given)): completely blocked adherence
- inhibition of P. gingivalis adherence, dose dependence [2]: dose dependent inhibition

Molecule: [N-]=[N+]=Nc1ccc(-c2nc(-c3ccccc3)c(-c3ccccc3)o2)cc1 [Compound 34, 2-(4-azidophenyl)-4,5-diphenyloxazole]
- P. gingivalis adherence to streptococci at 5 μM [2]: significantly reduced
- P. gingivalis adherence to streptococci at 20 μM [2]: completely blocked adherence

Molecule: CC(C)CNc1nc(NCC(C)C)nc(-c2ccccc2)n1 [Compound 46, N^2,N^4-Diisobutyl-6-phenyl-1,3,5-triazine-2,4-diamine]
- reduction of P. gingivalis adherence to streptococci at 25 μM ([2]; 25 μM compound): 25%
- reduction of P. gingivalis adherence to streptococci at 50 μM ([2]; 50 μM compound): approximately 60%

Molecule: [N-]=[N+]=NCc1nc(-c2ccccc2)c(-c2ccccc2)o1 [Compound 42, 2-(Azidomethyl)-4,5-diphenyloxazole]
- P. gingivalis adherence to streptococci at 20 μM [2]: completely inhibited adherence
- inhibition of P. gingivalis adherence, dose dependence [2]: dose dependent inhibition
